Where two headings read alike, the source gives them in different places.

Data set [1] in a line: In vivo pharmacokinetic study, curcumin plasma concentration by UPLC-MS/MS. Also on record: species or system female Wistar rats. Particulars: rats, single oral dose 100 mg/kg BW, mean ± SE (n = 5). As for the experimental part: The pharmacokinetic evaluation was carried out after obtaining approval from the Ethics Committee of the Faculty of Medicine Universitas Indonesia (approval number: 1188/ UN.2 F1/ETIK/2018). A pharmacokinetic study was carried out in female Wistar rats to determine the pharmacokinetic profile of curcumin particles and nanoparticles. Rats weighing 150–200 g were obtained and maintained at the Biomedical Research Center and Basic Health Technology Laboratory, Balitbangkes, Republic of Indonesia, Ministry of Health. The rats were placed in a room with constant temperature and humidity, adequate lighting, pellet food, and water ad libitum.
For each analysis, blood samples were pooled from six rats. […] Blood samples were taken from the rats tail vein using EDTA tubes. Blood samples were centrifuged at 3000 rpm for 15 minutes to obtain plasma, then stored at -80°C until analysis.
The LC-MS/MS system used was UPLC Waters and tandem mass spectrometry with a positive electrospray ionization source. Separation of analyte in the sample was carried using a liquid chromatography system with Acquity UPLC® BEH C18 column and mobile phase gradient in the form of 0.1% and acetonitrile formic acid with a ratio of 72:28 with analyte rate of 0.3 mL/min and injection volume of 3 µL. […] The calibration curve of a standard solution was made with the final level of the analytes at 1, 2.5, 5, 10, 25, and 50 ng/mL.[24]
The pharmacokinetic profiles were represented as mean and standard error (SE) from each group and were estimated through non-compartmental analysis. […] The area under the curve (AUC) from the beginning to the endpoint ( AUC^0→3 ) was calculated using the trapezoidal method. AUC^0→∞ is the amount of the AUC per time interval from 0 to the time of infinity, calculated by AUC^0→3 […]; Cpn is the plasma concentration at the last sampling time. […] The t1/2 was counted using the equation t1/2 = ln 2/Ke, and the CL was calculated by dividing the dose by AUC^0→∞ .[25]

The nature of data set [2]: Particle size and distribution (Delsa Nanoparticle Size Analyzer). It is filed as physicochemical. An excerpt: The examination of particle size and distribution of particles from nanoparticles was done using the Delsa™ Nanoparticle Size Analyzer (Beckman Coulter, Brea, USA).
For data set [3] the following is noted: cited from earlier work.
For data set [4] the following is noted: cited from earlier work. This is another data set of the same source.
The conditions of data set [5]: 340 mg/kg given orally ref Timothy et al; cited from earlier work.

With `COc1cc(/C=C/C(=O)CC(=O)/C=C/c2ccc(O)c(OC)c2)ccc1O` [Curcumin particles, Curcumin], in data set [1] (female, Wistar, rat), the Cmax (usually the highest concentration seen after dosing) was determined as 1.51 ± 0.401 ng/mL and the time of peak concentration (Tmax) (commonly the time at which the peak concentration occurs) is 44 min. Also, in data set [1] (female, Wistar, rat, read-out: AUC0-3), the AUC(0-t) was determined as 1.5 ± 0.401 ng·h/mL. Further, in data set [1] (female, Wistar, rat, read-out: AUC0-~), the AUC was 1.71 ± 0.535 ng·h/mL. Moreover, the k el in data set [1] (female, Wistar, rat, read-out: Ke (converted)) was 0.000327 s⁻¹. Moreover, the half-life in data set [1] (female, Wistar, rat, read-out: t1/2 elimination (converted)) was 51.5 ± 12.8 min. Besides, the Ka in data set [1] (residual method) was determined as 1.958 ± 0.468 h⁻¹. For the same compound, the mean particle size in data set [2] was 16103.4 nm. Moreover, the partition coefficient in data set [3] is given as 2.3–2.6. The bioavailability entry in data set [4] is given as “approximately 1%”. Further, the time to peak (Tmax) in data set [5] is 30 min.

The values are drawn from publication PMC7961214 (Advanced Pharmaceutical Bulletin, 2020).
